Measurements as given in patent publication EP2435433B1, “(DIHYDRO)IMIDAZOISO[5,1-A]QUINOLINES AS FSH RECEPTOR AGONISTS FOR THE TREATMENT OF FERTILITY DISORDERS” (Merck Sharp & Dohme B.V., priority 2009, dated 2010).

The compounds below were run against T1, human FSH receptor (Homo sapiens, UniProt P23945) (assay: Agonistic activity of compounds at the human FSH receptor expressed in CHO cells, CRE/luciferase reporter (hFSHRago (CHO luc))). Details: CHO cells stably transfected with the human FSH receptor and CRE/firefly luciferase reporter; 4 hours of incubation; half-maximal stimulation relative to the compound's own maximal effect; read-out: hFSHRago (CHO luc) EC50.
T1 construct: expressed in transfected cells; host or cells: Chinese Hamster Ovary (CHO) cells, stably transfected, cotransfected with CRE/promotor-firefly luciferase reporter
T1 sequence (P23945 18-695): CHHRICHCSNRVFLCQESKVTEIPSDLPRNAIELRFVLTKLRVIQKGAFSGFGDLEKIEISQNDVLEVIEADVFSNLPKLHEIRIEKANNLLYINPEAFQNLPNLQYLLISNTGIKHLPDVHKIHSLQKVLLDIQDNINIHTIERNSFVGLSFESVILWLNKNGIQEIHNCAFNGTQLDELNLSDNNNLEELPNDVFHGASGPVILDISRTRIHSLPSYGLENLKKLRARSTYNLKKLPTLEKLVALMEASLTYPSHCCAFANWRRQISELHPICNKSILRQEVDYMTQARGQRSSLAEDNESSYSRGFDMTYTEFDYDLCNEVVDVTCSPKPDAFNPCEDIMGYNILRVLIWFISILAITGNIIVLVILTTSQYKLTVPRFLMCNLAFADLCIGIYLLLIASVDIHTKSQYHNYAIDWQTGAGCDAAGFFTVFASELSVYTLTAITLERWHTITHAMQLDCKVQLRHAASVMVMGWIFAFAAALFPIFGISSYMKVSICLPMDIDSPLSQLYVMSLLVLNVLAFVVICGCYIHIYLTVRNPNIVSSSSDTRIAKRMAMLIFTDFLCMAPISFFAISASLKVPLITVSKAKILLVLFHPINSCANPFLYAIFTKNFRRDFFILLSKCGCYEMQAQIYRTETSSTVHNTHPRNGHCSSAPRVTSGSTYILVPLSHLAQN
Type: cell-based
Text: The term EC50 means the concentration of the test compound that elicits half-maximal (50 %) stimulation compared to the compound's maximally attainable effect. The values can be determined e.g. in a cell line transfected with a FSH receptor gene and cotransfected with a cAMP responsive element/promoter directing the expression of a reporter gene. Values can be determined using a software program such as MathIQ (version 2.0, ID Business Solutions Limited).
Agonistic activity of the compounds at the human FSH receptor was determined in Chinese Hamster Ovary (CHO) cells stably transfected with the human FSH receptor and cotransfected with a cAMP responsive element (CRE)/promotor directing the expression of a firefly luciferase reporter gene. Binding of the compounds to the Gs protein-coupled FSH receptor will result in an increase of cAMP, which in turn will induce an increased transactivation of the luciferase reporter. Cells (7,500 cells/well of a 384 well plate) were incubated in Dulbecco' minimal essential F12 modified medium (Invitrogen), supplemented with 1 µg/ml bovine insulin, 5 µg/ml human apo-transferrin, 80 U/ml penicillin G and 80 µg/ml streptomycin with the test compounds (concentration between 0.0316 nM and 10.0 µM) in duplicate in a humidified atmosphere (95%) at 5-7% CO2 and 37°C. The final concentration of DMSO was 1%. After 4 hours of incubation, plates were allowed to adjust to room temperature for 1 hour. Then, Luclite (PerkinElmer) solution was added to the wells and cells were allowed to lyse for at least 1 hour at room temperature. Subsequently, luciferase activity was measured in a luminescence counter. The signal is expressed as counts per second (cps). The EC50 (concentration of the test compound that elicits half-maximal (50 %) luciferase stimulation compared to the compound's maximally attainable effect) and efficacy values (maximal effect of the test compound as percentage of the maximal effect of recombinant human FSH) of the compounds were determined using the software program MathIQ (version 2.0, ID Business Solutions Limited). EC50 data are indicated at the synthesis examples.
Work on COc1cc2c(cc1OC(C)C)-c1c(-c3cccs3)nc(C(=O)N3CC4CC(C3)CN(C(=O)C3CCC3)C4)n1CC2 [Example 29d, (7-Cyclobutanecarbonyl-3,7-diaza-bicyclo[3.3.1]non-3-yl)-(9-isopropoxy-8-methoxy-1-thiophen-2-yl-5,6-dihydro-imidazo[5,1-a]isoquinolin-3-yl)-methanone] yielded an EC50 of 5 nM. COc1cc2c(cc1OCCO)-c1c(-c3cccs3)nc(C(=O)N(C)C(C)(C)C)n1CC2 [Example 30c, 9-(2-Hydroxy-ethoxy)-8-methoxy-1-thiophen-2-yl-5,6-dihydro-imidazo[5,1-a]isoquinoline-3-carboxylic acid tert-butyl-methyl-amide] was tested, and the EC50 was 7 nM. Work on COc1cc2c(cc1OCCN=[N+]=[N-])-c1c(-c3cccs3)nc(C(=O)N(C)C(C)(C)C)n1CC2 [Example 30e, 9-(2-Azido-ethoxy)-8-methoxy-1-thiophen-2-yl-5,6-dihydro-imidazo[5,1-a]isoquinoline-3-carboxylic acid tert-butyl-methyl-amide] yielded an EC50 of 15 nM. With COc1cc2c(cc1OCCN)-c1c(-c3cccs3)nc(C(=O)N(C)C(C)(C)C)n1CC2 [Example 31, 9-(2-Amino-ethoxy)-8-methoxy-1-thiophen-2-yl-5,6-dihydro-imidazo[5,1-a]isoquinoline-3-carboxylic acid tert-butyl-methyl-amide] the EC50 was 94 nM. Compound COc1cc2c(cc1OCCNC(C)=O)-c1c(-c3cccs3)nc(C(=O)N(C)C(C)(C)C)n1CC2 [Example 32, 9-(2-Acetylamino-ethoxy)-8-methoxy-1-thiophen-2-yl-5,6-dihydro-imidazo[5,1-a]isoquinoline-3-carboxylic acid tert-butyl-methyl-amide] has an EC50 of 559 nM. COC(=O)NCCOc1cc2c(cc1OC)CCn1c(C(=O)N(C)C(C)(C)C)nc(-c3cccs3)c1-2 [Example 33, {2-[3-(tert-Butyl-methyl-carbamoyl)-8-methoxy-1-thiophen-2-yl-5,6-dihydro-imidazo[5,1-a]isoquinolin-9-yloxy]-ethyl}-carbamic acid methyl ester] gave an EC50 of 142 nM. CCN(C(=O)c1nc(-c2cccs2)c2n1CCc1cc(OC)c(OCCO)cc1-2)C(C)(C)C [Example 34b, 9-(2-Hydroxy-ethoxy)-8-methoxy-1-thiophen-2-yl-5,6-dihydro-imidazo[5,1-a]isoquinoline-3-carboxylic acid tert-butyl-ethyl-amide] was tested, and the EC50 was 3 nM. Work on COCOc1cc2c(cc1OC)CCn1c(C(=O)N(C)C(C)(C)C)nc(-c3cccs3)c1-2 [Example 35b, 8-Methoxy-9-methoxymethoxy-1-thiophen-2-yl-5,6-dihydro-imidazo[5,1-a]isoquinoline-3-carboxylic acid tert-butyl-methyl-amide] yielded an EC50 of 19 nM. COc1cc2c(cc1C=C(C)C)-c1c(-c3cccs3)nc(C(=O)N(C)C(C)(C)C)n1CC2 [Example 36c, 8-Methoxy-9-(2-methyl-propenyl)-1-thiophen-2-yl-5,6-dihydro-imidazo[5,1-a]isoquinoline-3-carboxylic acid tert-butyl-methyl-amide] showed an EC50 of 2 nM. COc1cc2c(cc1CC(C)C)-c1c(-c3ncco3)nc(C(=O)N(C)C(C)(C)C)n1CC2 [Example 37f, 9-Isobutyl-8-methoxy-1-oxazol-2-yl-5,6-dihydro-imidazo[5,1-a]isoquinoline-3-carboxylic acid tert-butyl-methyl-amide] gave an EC50 of 380 nM. With COc1cc2c(cc1CC(C)C)-c1c(-c3cncs3)nc(C(=O)N(C)C(C)(C)C)n1CC2 [Example 38, 9-Isobutyl-8-methoxy-1-thiazol-5-yl-5,6-dihydro-imidazo[5,1-a]isoquinoline-3-carboxylic acid tert-butyl-methyl-amide] the EC50 was 13 nM. Compound COc1cc2c(cc1C=C(F)F)-c1c(-c3cccs3)nc(C(=O)N(C)C(C)(C)C)n1CC2 [Example 39, 9-(2,2-Difluoro-vinyl)-8-methoxy-1-thiophen-2-yl-5,6-dihydro-imidazo[5,1-a]isoquinoline-3-carboxylic acid tert-butyl-methyl-amide] has an EC50 of 22 nM.
